Assay results reported in patent publication US20240368122A1, “JAK2 INHIBITORS AND METHODS OF USE THEREOF” (RELAY THERAPEUTICS, INC., priority 2021, published 2024).
Like-named read-outs stand apart in the source and are kept apart here.

How the values were obtained:
JAK2 JH1 WT (T842-G1132) = target: T1, JAK2 JH1 WT (T842-G1132) (Homo sapiens, UniProt O60674); assay: Surface Plasmon Resonance (SPR) binding assay, JAK2 JH1 domain
T1 construct: *JAK2 JH1 WT (T842-G1132) N-His60-avi-TEV; His6 (N); TEV cleavage site (N); purchased Biortus
Method: Selected compounds of the present disclosure were tested in a Surface Plasmon Resonance (SPR) Assay to measure their binding kinetics and affinity for proteins of interest.
Prepare buffer: 50 mM HEPES pH 7.5, 150 mM NaCl, 0.05% (v/v) Tween, and 10% (v/v) glycerol were combined and pH was adjusted to 7.5, then filtered. 5 mM DTT, was added, and buffer without DMSO was reserved for compound resuspension. 2% (v/v) DMSO was added for assay buffer, and separately 1% DMSO was used to make buffer for resuspending compounds.
Prepare compounds: Using a Bravo liquid handler, 99 μL of 1% (v/v) DMSO assay buffer was added to 1 μL compounds in DMSO.
Run 8K Method: Biotin CAPture (CAP) chip surface was regenerated prior to run by: Inserting CAP chip into Biacore 8K, prime machine with assay buffer with 2% (v/v) DMSO; Setting instrument temperature to 20° C.; Conditioning surface with NaOH/GdnHCl reagents from CAP chip kit (60 seconds, 10 μL/min); and Capturing oligo-Streptavidin (SA) reagent from CAP kit (600 seconds, 1 μL/min), expected capture ˜2500 RU. JAK2 JH1 or JH2 protein was immobilized by preparing a sample of 0.5 uM JH1 or 0.4 uM JH2 protein diluted in assay buffer without DMSO and supplemented with 10 uM of a selected compound of the invention as a stabilizer (370 seconds, 5 uL/min), expected capture ˜1000 RU. Remaining biotin sites on SA were blocked with 1 uM biotin (30 seconds, 20 uL/min), then equilibrated for 1800 seconds at 100 uL/min. Compounds being assayed were run in single cycle kinetics: 4 doses with a top concentration of 5 uM (JH1) or 500 nM (JH2), dilution factor of 3, at 20° C., for a contact time of 60 seconds, and a dissociation time of 300 seconds (JH1) or 1200 seconds (JH2), at a flow rate of 30 uL/min. The surface was completely regenerated after each compound is run, and JH1 or JH2 protein was immobilized fresh prior to each new compound. Data were fitted kinetically with 1:1 binding model using Biacore Insight Evaluation Software.

[1] = system: TF1 JAK2 V617F STAT5 reporter; assay: Cellular TF1 STAT5 assay (luciferase reporter), JAK2 V617F; format: cell-based; conditions: read-out: Cell PD TF1 V617F STAT5 (IC50)
Summary of the method: (§1)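 Compounds were dispensed as 1000× DMSO stocks (10 mM top, 1:3 steps), then V617F JAK2 TF1 cells carrying a STAT3 or STAT5 luciferase reporter were added. After 18-20 h at 37 °C, ONE-glo reagent was added and luminescence measured.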

[2] = target: T2, JAK2 JH2 WT (V536-D812) [W659A, W777A, F794H solubilizing mutations] (Homo sapiens, UniProt O60674, F794H/W659A/W777A); assay: Surface Plasmon Resonance (SPR) binding assay, JAK2 JH2 domain
T2 construct: **JAK2 JH2 WT (V536-D812) [W659A, W777A, F794H solubilizing mutations]; C-thrombin-avi-His6; thrombin cleavage site (C); His6 (C); purchased Biortus
Summary of the method: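 Kinetics came from 1:1 fits of single-cycle runs at 20 °C: four 3-fold dilutions from 5 uM for JH1 or 500 nM for JH2, 60 s association, and 300 s or 1200 s dissociation respectively. Protein was freshly captured per compound in the presence of 10 uM stabilizer compound, with running buffer of pH 7.5 HEPES/NaCl/glycerol/DTT plus 2% DMSO.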

[3] = system: TF1 JAK2 V617F STAT3 reporter; assay: Cellular TF1 STAT3 assay (luciferase reporter), JAK2 V617F; format: cell-based; conditions: read-out: Cell PD-TF1 JAK2 V617F STAT3 (IC50)
Summary of the method: as §1

[4] = Homo sapiens, TF-1, TF1 cells, JAK2 V617F

T2 sequence (O60674 536-812 W659A/W777A/F794H): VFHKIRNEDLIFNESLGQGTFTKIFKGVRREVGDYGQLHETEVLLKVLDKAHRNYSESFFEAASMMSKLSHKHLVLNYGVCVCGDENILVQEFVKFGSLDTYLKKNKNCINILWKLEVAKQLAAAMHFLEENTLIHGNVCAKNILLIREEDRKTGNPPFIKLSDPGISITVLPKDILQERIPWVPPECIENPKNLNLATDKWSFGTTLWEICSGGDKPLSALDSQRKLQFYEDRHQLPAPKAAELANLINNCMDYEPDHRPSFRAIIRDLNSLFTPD
T1 sequence (O60674 842-1132): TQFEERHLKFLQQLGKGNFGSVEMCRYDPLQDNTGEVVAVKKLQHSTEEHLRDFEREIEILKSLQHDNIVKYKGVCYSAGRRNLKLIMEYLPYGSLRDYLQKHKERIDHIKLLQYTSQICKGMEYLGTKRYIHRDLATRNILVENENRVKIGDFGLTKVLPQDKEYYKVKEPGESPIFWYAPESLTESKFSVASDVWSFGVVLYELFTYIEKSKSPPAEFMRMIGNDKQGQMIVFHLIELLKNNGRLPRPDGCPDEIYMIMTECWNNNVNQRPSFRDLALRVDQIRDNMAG

With `CNC(=O)c1nnc(NC(=O)C2CC2)cc1Nc1cccc(-c2cnn(C3CN(Cc4ccnc(C)n4)C3)c2)c1OC` [Compound 148] as the compound, how does the Kd (JAK2 JH1 WT (T842-G1132); SPR, JAK2 JH1 domain) read?
Its Kd is 500 to 5000 nM.

What about the IC50 ([1]; TF1 JAK2 V617F) of the same compound?
The IC50 was 5000 to 100000 nM.

And the Kd ([2]; SPR, JAK2 JH2 domain)?
Its Kd is 0.01 to 10 nM.

And the IC50 ([3]; TF1 JAK2 V617F)?
Its IC50 is 500 to 5000 nM.

`CNC(=O)c1nnc(NC(=O)C2CC2)cc1Nc1cccc(-c2nnc(C3CN(Cc4ccccn4)C3)o2)c1OC` [Compound 156] was tested. Which Kd (JAK2 JH1 WT (T842-G1132); SPR, JAK2 JH1 domain) did it give?
The Kd was 5000 to 100000 nM.

What about the IC50 ([1]; TF1 JAK2 V617F) of the same compound?
Its IC50 is 5000 to 100000 nM.

And the Kd ([2]; SPR, JAK2 JH2 domain)?
The Kd was 10 to 50 nM.

And the IC50 ([3]; TF1 JAK2 V617F)?
Its IC50 is 5000 to 100000 nM.

Which results are given for `CNC(=O)c1nnc(NC(=O)C2CC2)cc1Nc1cccc(-c2cnn(C3CN(Cc4ccn(C)n4)C3)c2)c1OC` [Compound 41]?
Kd (JAK2 JH1 WT (T842-G1132); SPR, JAK2 JH1 domain): 500 to 5000 nM; IC50 ([1]; TF1 JAK2 V617F): 50 to 500 nM; Kd ([2]; SPR, JAK2 JH2 domain): 0.01 to 10 nM; IC50 ([3]; TF1 JAK2 V617F): 50 to 500 nM

For `CNC(=O)c1nnc(NC(=O)C2CC2)cc1Nc1cccc(-c2cnc(C(=O)NCc3cccn(C)c3=O)nc2)c1OC` [Compound 9], which Kd (JAK2 JH1 WT (T842-G1132); SPR, JAK2 JH1 domain) is on record?
Its Kd is 500 to 5000 nM.

And the IC50 ([1]; TF1 JAK2 V617F)?
The IC50 was 5000 to 100000 nM.

And the Kd ([2]; SPR, JAK2 JH2 domain)?
The Kd was 0.01 to 10 nM.

What about the IC50 ([3]; TF1 JAK2 V617F) of the same compound?
The IC50 was 500 to 5000 nM.

Which Kd (JAK2 JH1 WT (T842-G1132); SPR, JAK2 JH1 domain) does the source give for `[2H]C([2H])([2H])NC(=O)c1nnc(NC(=O)C2CC2)cc1Nc1cccc(-c2ccc(C(=O)N(C)Cc3cc(C#N)ccn3)nc2)c1OC` [Compound 61] here?
Its Kd is 5000 to 100000 nM.

What about the IC50 ([1]; TF1 JAK2 V617F) of the same compound?
The IC50 was 50 to 500 nM.

What about the Kd ([2]; SPR, JAK2 JH2 domain) of the same compound?
Its Kd is 0.01 to 10 nM.

And the IC50 ([3]; TF1 JAK2 V617F)?
Its IC50 is 50 to 500 nM.

For `CNC(=O)c1nnc(NC(=O)C2CC2)cc1Nc1cccc(-c2ccc(C(=O)N(C)Cc3cc(C(F)F)ccn3)nc2)c1OC` [Compound 158], which Kd (JAK2 JH1 WT (T842-G1132); SPR, JAK2 JH1 domain) is on record?
Its Kd is 5000 to 100000 nM.

What about the IC50 ([1]; TF1 JAK2 V617F) of the same compound?
Its IC50 is 50 to 500 nM.

What about the Kd ([2]; SPR, JAK2 JH2 domain) of the same compound?
Its Kd is 0.01 to 10 nM.

And the IC50 ([3]; TF1 JAK2 V617F)?
The IC50 was 50 to 500 nM.

Which results are given for `CNC(=O)c1nnc(NC(=O)C2CC2)cc1Nc1cccc(-c2cnc(C(=O)N(C)Cc3cc(C#N)ccn3)nc2)c1OC` [Compound 36]?
Kd (JAK2 JH1 WT (T842-G1132); SPR, JAK2 JH1 domain): 5000 to 100000 nM; IC50 ([1]; TF1 JAK2 V617F): 50 to 500 nM; Kd ([2]; SPR, JAK2 JH2 domain): 0.01 to 10 nM; IC50 ([3]; TF1 JAK2 V617F): 50 to 500 nM

Which results are given for `CNC(=O)c1nnc(NC(=O)C2CC2)cc1Nc1ccc(C)c(-c2ccc(C(=O)N(C)Cc3cc(C#N)ccn3)nc2)c1OC` [Compound 33]?
Kd (JAK2 JH1 WT (T842-G1132); SPR, JAK2 JH1 domain): 5000 to 100000 nM; IC50 ([1]; TF1 JAK2 V617F): 10 to 50 nM; Kd ([2]; SPR, JAK2 JH2 domain): 0.01 to 10 nM; IC50 ([3]; TF1 JAK2 V617F): 10 to 50 nM

With `CNC(=O)c1nnc(NC(=O)C2CC2)cc1Nc1cccc(-c2cnc(C(=O)N(C)Cc3cc(C#N)ccn3)cn2)c1OC` [Compound 37] as the compound, how does the Kd (JAK2 JH1 WT (T842-G1132); SPR, JAK2 JH1 domain) read?
The Kd was 5000 to 100000 nM.

And the IC50 ([1]; TF1 JAK2 V617F)?
Its IC50 is 50 to 500 nM.

What about the Kd ([2]; SPR, JAK2 JH2 domain) of the same compound?
Its Kd is 0.01 to 10 nM.

And the IC50 ([3]; TF1 JAK2 V617F)?
Its IC50 is 50 to 500 nM.

For `CNC(=O)c1nnc(NC(=O)C2CC2)cc1Nc1cccc(-c2ccc(C(=O)N(C)Cc3cc(C#N)ccn3)nn2)c1OC` [Compound 35], which Kd (JAK2 JH1 WT (T842-G1132); SPR, JAK2 JH1 domain) is on record?
Its Kd is 5000 to 100000 nM.

What about the IC50 ([1]; TF1 JAK2 V617F) of the same compound?
Its IC50 is 500 to 5000 nM.

And the Kd ([2]; SPR, JAK2 JH2 domain)?
The Kd was 0.01 to 10 nM.

And the IC50 ([3]; TF1 JAK2 V617F)?
The IC50 was 50 to 500 nM.

With `CNC(=O)c1nnc(NC(=O)C2CC2)cc1Nc1cccc(-c2ccc(C(=O)N(C)Cc3cccc(C#N)n3)nc2)c1OC` [Compound 135] as the compound, how does the Kd (JAK2 JH1 WT (T842-G1132); SPR, JAK2 JH1 domain) read?
The Kd was 5000 to 100000 nM.

What about the IC50 ([1]; TF1 JAK2 V617F) of the same compound?
The IC50 was 50 to 500 nM.

And the Kd ([2]; SPR, JAK2 JH2 domain)?
The Kd was 0.01 to 10 nM.

And the IC50 ([3]; TF1 JAK2 V617F)?
Its IC50 is 50 to 500 nM.

Which Kd (JAK2 JH1 WT (T842-G1132); SPR, JAK2 JH1 domain) does the source give for `CNC(=O)c1nnc(NC(=O)C2CC2)cc1Nc1cccc(-c2cnn(C3CN(Cc4cccc(Cl)n4)C3)c2)c1OC` [Compound 143] here?
Its Kd is 5000 to 100000 nM.

What about the IC50 ([1]; TF1 JAK2 V617F) of the same compound?
Its IC50 is 50 to 500 nM.

What about the Kd ([2]; SPR, JAK2 JH2 domain) of the same compound?
Its Kd is 0.01 to 10 nM.

And the IC50 ([3]; TF1 JAK2 V617F)?
The IC50 was 50 to 500 nM.

Which Kd (JAK2 JH1 WT (T842-G1132)) does the source give for `CNC(=O)c1nnc(NC(=O)C2CC2)cc1Nc1cccc(-c2cnn(C3CN(C(C)=O)C3)c2)c1OC` [Compound 301] here?
Its Kd is 5000 to 100000 nM.

And the IC50 [1, 4]?
The IC50 was 5000 to 100000 nM.

What about the Kd [2] of the same compound?
The Kd was 50 to 500 nM.

What about the IC50 [3, 4] of the same compound?
Its IC50 is 5000 to 100000 nM.

What does the source list for `CNC(=O)c1nnc(NC(=O)C2CC2)cc1Nc1cccc(-c2cnn(C3CN(Cc4cc(C#N)ccn4)C3)c2)c1OC` [Compound 66]?
Kd (JAK2 JH1 WT (T842-G1132); SPR, JAK2 JH1 domain): 5000 to 100000 nM; IC50 ([1]; TF1 JAK2 V617F): 500 to 5000 nM; Kd ([2]; SPR, JAK2 JH2 domain): 0.01 to 10 nM; IC50 ([3]; TF1 JAK2 V617F): 50 to 500 nM

What does the source list for `CNC(=O)c1nnc(NC(=O)C2CC2)cc1Nc1cccc(-c2cnc(C(=O)N(C)Cc3ccn(C)n3)c(C#N)c2)c1OC` [Compound 92]?
Kd (JAK2 JH1 WT (T842-G1132); SPR, JAK2 JH1 domain): 5000 to 100000 nM; IC50 ([1]; TF1 JAK2 V617F): 500 to 5000 nM; Kd ([2]; SPR, JAK2 JH2 domain): 0.01 to 10 nM; IC50 ([3]; TF1 JAK2 V617F): 500 to 5000 nM
